Test results taken from patent US9334279B2, “Hepatitis C virus inhibitors” (BRISTOL-MYERS SQUIBB COMPANY, priority 2012, dated 2016).
Where two headings read alike, the source gives them in different places.

Columns and labels:
HCV GT1b(Con1) replicon = test: HCV replicon luciferase reporter assay, genotype 1b; assay type: cell-based, HCV genotype 1b; details: Hepatitis C virus, 72 h, HUH-7 cells, Renilla luciferase, 3 days incubation
Method in brief: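 HUH-7 cells stably carrying a Con1 GT1b replicon with Renilla luciferase and Ser1179Ile adaptive mutation; 3.0×10^3 cells/well, DMEM 4% FCS, 0.5% DMSO, twenty-point 3-fold titration, 3 days 37 °C. Luminescence 2 h after 7.5 μM EnduRen; EC50 by four-parameter logistic fit. CC50 from multiplexed Cell Titer-Blue fluorescence (8 h).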

HCV GT1a(H77) replicon = test: HCV replicon luciferase reporter assay, genotype 1a; assay type: cell-based, HCV genotype 1a; details: Hepatitis C virus, 72 h, HUH-7 cells, Renilla luciferase, 3 days incubation
Method in brief: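 Huh-7 cells stably carried a GT1a(H77) Renilla luciferase replicon with NS3 P1496L and NS5A S2204I adaptive mutations. Luminescence was read after 2 h with 7.5 μM EnduRen, and EC50 came from a four-parameter logistic fit; CC50 came from multiplexed Cell Titer-Blue (8 h).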

| Structure (SMILES) | EC50 (HCV GT1b(Con1) replicon; read-out: LE_1b (EC50, range)) [nM] | EC50 (HCV GT1a(H77) replicon; read-out: LE_1a (EC50, range)) [nM] | EC50 (HCV GT1b(Con1) replicon; read-out: LE_1b (EC50)) [nM] | EC50 (HCV GT1a(H77) replicon; read-out: LE_1a (EC50)) [nM] |
| --- | --- | --- | --- | --- |
| CC(C)Oc1ccc(-c2cc(O[C@@H]3C[C@H]4C(=O)N[C@]5(C(=O)NS(=O)(=O)C6(C)CC6)C[C@H]5/C=C\CC[C@@H](C)C[C@@H](C)[C@H](NC(=O)OC(C)(C)C(F)(F)F)C(=O)N4C3)cc(-c3ccncc3)n2)cc1 [Compound 1009, 1,1,1-trifluoro-2-methylpropan-2-yl ((2R,6S,7R,9R,13aS,14aR,16aS,Z)-2-((6-(4-isopropoxyphenyl)-[2,4′-bipyridin]-4-yl)oxy)-7,9-dimethyl-14a-(((1-methylcyclopropyl)sulfonyl)carbamoyl)-5,16-dioxo-1,2,3,5,6,7,8,9,10,11,13a,14,14a,15,16,16a-hexadecahydrocyclopropa[e]pyrrolo[1,2-a][1,4]diazacyclopentadecin-6-yl)carbamate] | 1.01 to 5 | 1.01 to 5 |  |  |
| CC(C)Oc1ccc(-c2cc(O[C@@H]3C[C@H]4C(=O)N[C@]5(C(=O)NS(=O)(=O)C6(C)CC6)C[C@H]5/C=C\CC[C@@H](C)C[C@@H](C)[C@H](NC(=O)OC(C)(C)C(F)(F)F)C(=O)N4C3)cc(-c3nccs3)n2)cn1 [Compound 1046, 1,1,1-trifluoro-2-methylpropan-2-yl ((2R,6S,7R,9R,13aS,14aR,16aS,Z)-2-((6′-isopropoxy-6-(thiazol-2-yl)-[2,3′-bipyridin]-4-yl)oxy)-7,9-dimethyl-14a-(((1-methylcyclopropyl)sulfonyl)carbamoyl)-5,16-dioxo-1,2,3,5,6,7,8,9,10,11,13a,14,14a,15,16,16a-hexadecahydrocyclopropa[e]pyrrolo[1,2-a][1,4]diazacyclopentadecin-6-yl)carbamate] | 1.01 to 5 | 1.01 to 5 |  |  |
| CC[C@@H]1O[C@H](C)CC/C=C\[C@@H]2C[C@@]2(C(=O)NS(=O)(=O)C2(C)CC2)NC(=O)[C@@H]2C[C@@H](Oc3cc(-c4ccc(OC(C)C)cc4)nc(-c4nccs4)c3)CN2C(=O)[C@H]1NC(=O)OC1(C(F)(F)F)CCCOC1 (stereo partly drawn) [Compound 1035, 3-(trifluoromethyl)tetrahydro-2H-pyran-3-yl ((2R,6S,7S,9R,13aS,14aR,16aS,Z)-7-ethyl-2-((2-(4-isopropoxyphenyl)-6-(thiazol-2-yl)pyridin-4-yl)oxy)-9-methyl-14a-(((1-methylcyclopropyl)sulfonyl)carbamoyl)-5,16-dioxo-2,3,5,6,7,9,10,11,13a,14,14a,15,16,16a-tetradecahydro-1H-cyclopropa[i]pyrrolo[1,2-e][1,5,8]oxadiazacyclopentadecin-6-yl)carbamate] | 0.51 to 1 | 0.51 to 1 |  |  |
| Cc1cc(O[C@@H]2C[C@H]3C(=O)N[C@]4(C(=O)NS(=O)(=O)C5(C)CC5)C[C@H]4/C=C\CC[C@@H](C)C[C@@H](C)[C@H](NC(=O)OC(C)(C)C(F)(F)F)C(=O)N3C2)cc(-c2cncs2)n1 [Compound 1015, 1,1,1-trifluoro-2-methylpropan-2-yl ((2R,6S,7R,9R,13aS,14aR,16aS,Z)-7,9-dimethyl-2-((2-methyl-6-(thiazol-5-yl)pyridin-4-yl)oxy)-14a-(((1-methylcyclopropyl)sulfonyl)carbamoyl)-5,16-dioxo-1,2,3,5,6,7,8,9,10,11,13a,14,14a,15,16,16a-hexadecahydrocyclopropa[e]pyrrolo[1,2-a][1,4]diazacyclopentadecin-6-yl)carbamate] | 5.01 to 35 | 5.01 to 35 |  |  |
| C[C@@H]1CC/C=C\[C@@H]2C[C@@]2(C(=O)NS(=O)(=O)C2(C)CC2)NC(=O)[C@@H]2C[C@@H](Oc3cc(-c4nccs4)nc(-c4nccs4)c3)CN2C(=O)[C@@H](NC(=O)OC(C)(C)C(F)(F)F)[C@H](C)C1 [Compound 1023, 1,1,1-trifluoro-2-methylpropan-2-yl ((2R,6S,7R,9R,13aS,14aR,16aS,Z)-2-((2,6-di(thiazol-2-yl)pyridin-4-yl)oxy)-7,9-dimethyl-14a-(((1-methylcyclopropyl)sulfonyl)carbamoyl)-5,16-dioxo-1,2,3,5,6,7,8,9,10,11,13a,14,14a,15,16,16a-hexadecahydrocyclopropa[e]pyrrolo[1,2-a][1,4]diazacyclopentadecin-6-yl)carbamate] | 0.1 to 0.5 | 0.1 to 0.5 | 0.4 | 0.46 |
| C[C@@H]1CC/C=C\[C@@H]2C[C@@]2(C(=O)NS(=O)(=O)C2(C)CC2)NC(=O)[C@@H]2C[C@@H](Oc3cc(-c4ccccc4)nc(-c4nccs4)c3)CN2C(=O)[C@@H](NC(=O)OC(C)(C)C(F)(F)F)[C@H](C)C1 [Compound 1060, 1,1,1-trifluoro-2-methylpropan-2-yl ((2R,6S,7R,9R,13aS,14aR,16aS,Z)-7,9-dimethyl-14a-(((1-methylcyclopropyl)sulfonyl)carbamoyl)-5,16-dioxo-2-((2-phenyl-6-(thiazol-2-yl)pyridin-4-yl)oxy)-1,2,3,5,6,7,8,9,10,11,13a,14,14a,15,16,16a-hexadecahydrocyclopropa[e]pyrrolo[1,2-a][1,4]diazacyclopentadecin-6-yl)carbamate] | 0.1 to 0.5 | 0.51 to 1 |  |  |
| CC(C)Oc1ccc(-c2cc(Cl)cc(O[C@@H]3C[C@H]4C(=O)N[C@]5(C(=O)NS(=O)(=O)C6(C)CC6)C[C@H]5/C=C\CC[C@@H](C)C[C@@H](C)[C@H](NC(=O)OC(C)(C)C(F)(F)F)C(=O)N4C3)n2)cc1 [Compound 1027, 1,1,1-trifluoro-2-methylpropan-2-yl ((2R,6S,7R,9R,13aS,14aR,16aS,Z)-2-((4-chloro-6-(4-isopropoxyphenyl)pyridin-2-yl)oxy)-7,9-dimethyl-14a-(((1-methylcyclopropyl)sulfonyl)carbamoyl)-5,16-dioxo-1,2,3,5,6,7,8,9,10,11,13a,14,14a,15,16,16a-hexadecahydrocyclopropa[e]pyrrolo[1,2-a][1,4]diazacyclopentadecin-6-yl)carbamate] | 1.01 to 5 | 1.01 to 5 |  |  |
| Cc1ccc(-c2cc(O[C@@H]3C[C@H]4C(=O)N[C@]5(C(=O)NS(=O)(=O)C6(C)CC6)C[C@H]5/C=C\CC[C@@H](C)C[C@@H](C)[C@H](NC(=O)OC(C)(C)C(F)(F)F)C(=O)N4C3)cc(-c3nccs3)n2)cc1 [Compound 1059, 1,1,1-trifluoro-2-methylpropan-2-yl ((2R,6S,7R,9R,13aS,14aR,16aS,Z)-7,9-dimethyl-14a-(((1-methylcyclopropyl)sulfonyl)carbamoyl)-5,16-dioxo-2-((2-(thiazol-2-yl)-6-(p-tolyl)pyridin-4-yl)oxy)-1,2,3,5,6,7,8,9,10,11,13a,14,14a,15,16,16a-hexadecahydrocyclopropa[e]pyrrolo[1,2-a][1,4]diazacyclopentadecin-6-yl)carbamate] | 0.51 to 1 | 0.51 to 1 |  |  |
| CC[C@@H]1OCCC/C=C\[C@@H]2C[C@@]2(C(=O)NS(=O)(=O)C2(C)CC2)NC(=O)[C@@H]2C[C@@H](Oc3cc(-c4ccc(OC(C)C)cc4)nc(-c4cncs4)c3)CN2C(=O)[C@H]1NC(=O)OC1(C(F)(F)F)CCCOC1 (stereo partly drawn) [Compound 1038, 3-(trifluoromethyl)tetrahydro-2H-pyran-3-yl ((2R,6S,7S,13aS,14aR,16aS,Z)-7-ethyl-2-((2-(4-isopropoxyphenyl)-6-(thiazol-5-yl)pyridin-4-yl)oxy)-14a-(((1-methylcyclopropyl)sulfonyl)carbamoyl)-5,16-dioxo-2,3,5,6,7,9,10,11,13a,14,14a,15,16,16a-tetradecahydro-1H-cyclopropa[i]pyrrolo[1,2-e][1,5,8]oxadiazacyclopentadecin-6-yl)carbamate] | 0.51 to 1 | 1.01 to 5 |  |  |
| CC(C)Oc1ccc(-c2cc(O[C@@H]3C[C@H]4C(=O)N[C@]5(C(=O)NS(=O)(=O)C6(C)CC6)C[C@H]5/C=C\CC[C@@H](C)C[C@@H](C)[C@H](NC(=O)OC5(C(F)(F)F)CCCOC5)C(=O)N4C3)cc(-c3nccs3)n2)cn1 (stereo partly drawn) [Compound 1047, 3-(trifluoromethyl)tetrahydro-2H-pyran-3-yl ((2R,6S,7R,9R,13aS,14aR,16aS,Z)-2-((6′-isopropoxy-6-(thiazol-2-yl)-[2,3′-bipyridin]-4-yl)oxy)-7,9-dimethyl-14a-(((1-methylcyclopropyl)sulfonyl)carbamoyl)-5,16-dioxo-1,2,3,5,6,7,8,9,10,11,13a,14,14a,15,16,16a-hexadecahydrocyclopropa[e]pyrrolo[1,2-a][1,4]diazacyclopentadecin-6-yl)carbamate] | 0.51 to 1 | 1.01 to 5 |  |  |
| CC(C)Oc1ccc(-c2cc(O[C@@H]3C[C@H]4C(=O)N[C@]5(C(=O)NS(=O)(=O)C6(C)CC6)C[C@H]5/C=C\CC[C@H](C)C[C@@H](C)[C@H](NC(=O)OC(C)(C)C(F)(F)F)C(=O)N4C3)cc(-c3cnccn3)n2)cc1 [Compound 1002, 1,1,1-trifluoro-2-methylpropan-2-yl ((2R,6S,7R,9S,13aS,14aR,16aS,Z)-2-((2-(4-isopropoxyphenyl)-6-(pyrazin-2-yl)pyridin-4-yl)oxy)-7,9-dimethyl-14a-(((1-methylcyclopropyl)sulfonyl)carbamoyl)-5,16-dioxo-1,2,3,5,6,7,8,9,10,11,13a,14,14a,15,16,16a-hexadecahydrocyclopropa[e]pyrrolo[1,2-a][1,4]diazacyclopentadecin-6-yl)carbamate] | 5.01 to 35 | 35 to 359 | 11.6 | 59 |
